Experimental data as given in US11976083B2, “Inhibitors of peptidylarginine deiminases” (Gilead Sciences, Inc., priority 2020, dated 2024).

These compounds were tested against T1, human PAD4 (Homo sapiens, UniProt Q9UM07) (assay: In vitro PAD4 BAEE biochemical assay). Conditions: BAEE substrate 3 mM, 5 nM PAD4, 2 mM calcium chloride; geometric mean of multiple experiments.
T1 construct: human PAD4 (NM_012387), A2-P663, was PCR amplified; His-SUMO (N, cleaved yes); made in house; host or cells: E. coli BL21(DE3)
T1 sequence (Q9UM07 2-663): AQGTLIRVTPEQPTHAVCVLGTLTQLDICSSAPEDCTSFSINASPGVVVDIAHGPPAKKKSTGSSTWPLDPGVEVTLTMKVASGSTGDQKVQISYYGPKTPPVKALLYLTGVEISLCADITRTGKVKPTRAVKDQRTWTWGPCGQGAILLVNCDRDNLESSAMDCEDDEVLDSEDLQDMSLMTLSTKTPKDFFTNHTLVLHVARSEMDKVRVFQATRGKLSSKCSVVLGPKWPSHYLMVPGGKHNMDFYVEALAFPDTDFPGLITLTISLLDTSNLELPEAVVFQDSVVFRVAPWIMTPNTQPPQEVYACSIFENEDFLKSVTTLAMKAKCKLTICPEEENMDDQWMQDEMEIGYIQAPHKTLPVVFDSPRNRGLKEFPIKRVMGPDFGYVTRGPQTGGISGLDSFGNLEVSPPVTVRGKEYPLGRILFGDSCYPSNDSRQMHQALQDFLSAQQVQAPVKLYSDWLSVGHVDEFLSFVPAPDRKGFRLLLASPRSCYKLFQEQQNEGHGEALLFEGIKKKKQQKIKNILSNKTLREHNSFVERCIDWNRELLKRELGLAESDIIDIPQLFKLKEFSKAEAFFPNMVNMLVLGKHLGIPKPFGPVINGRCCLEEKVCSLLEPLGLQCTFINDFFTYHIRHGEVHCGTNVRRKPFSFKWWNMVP
How it was run: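 Recombinant human PAD4 (5 nM final) with 2 mM CaCl2 was preincubated with compound 30 min at 25 °C in MOPS buffer pH 7.6, then reacted with 3 mM BAEE for 2 h at 25 °C. After EDTA stop, released ammonia was detected by o-phthalaldehyde/DTT fluorescence (ex 405/em 535 nm); IC50 from four-parameter fit, geometric mean.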
An IC50 of 28 nM was found for `COc1cc(C(=O)N2C[C@H](N)[C@@H]3CC[C@H]2C3)cc2nc(-c3cc4ccc5nc4n3CC(F)(F)CCC[C@@H]3C[C@H]3C(=O)N[C@@H]5C)n(C3CC3)c12` [Example 766, (2~{R},5~{R},7~{R})-14-[5-[(1~{S},4~{R},5~{R})-4-amino-2-azabicyclo[3.2.1]octane-2-carbonyl]-1-cyclopropyl-7-methoxy-benzimidazol-2-yl]-11,11-difluoro-2-methyl-3,13,19-triazatetracyclo [11.5.2.0^{5,7}.0^{16,20}] icosa-1(19),14,16(20),17-tetraen-4-one] in this work. An IC50 of 18 nM was found for `COc1cc(C(=O)N2C[C@H](N)[C@@H]3CC[C@H]2C3)cc2nc(-c3cc4ccc5nc4n3CCCCC[C@@H]3C[C@H]3C(=O)N[C@@H]5C)n(C3CC3)c12` [Example 767, (2~{R},5~{R},7~{R})-14-[5-[(1~{S},4~{R},5~{R})-4-amino-2-azabicyclo[3.2.1]octane-2-carbonyl]-1-cyclopropyl-7-methoxy-benzimidazol-2-yl]-2-methyl-3,13,19-triazatetracyclo[11.5.2.0^ {5,7}.0^{16,20}]icosa-1(19),14,16(20),17-tetraen-4-one] in this work. An IC50 of 59 nM was found for `COc1cc(C(=O)N2C[C@H](N)[C@@H]3CC[C@H]2C3)cc2nc(-c3cc4ccc5nc4n3CCCCCc3nc(Cl)ccc3C(=O)N[C@@H]5C)c(C3CC3)n12` [Example 768, (2~{R})-17-[7-[(1~{S},4~{R}, 5~{R})-4-amino-2-azabicyclo [3.2.1]octane-2-carbonyl]-3-cyclopropyl-5-methoxy-imidazo[1,2-a]pyridin-2-yl]-8-chloro-2-methyl-3,9,16,22-tetrazatetracyclo[14.5.2.0^ {5,10}.0^{19,23}]tricosa-1(22),5(10),6,8,17,19(23),20-heptaen-4-one] in this work. An IC50 of 13 nM was found for `COc1cc(C(=O)N2C[C@H](N)[C@@H]3CC[C@H]2C3)cc2nc(-c3cc4ccc5nc4n3CC(F)(F)CCC[C@]3(F)C[C@H]3C(=O)N[C@@H]5C)n(C3CC3)c12` [Example 769, (2~{R},5~{S},7~{S})-14-[5-[(1~{S},4~{R},5~{R})-4-amino-2-azabicyclo[3.2.1]octane-2-carbonyl]-1-cyclopropyl-7-methoxy-benzimidazol-2-yl]-7,11,11-trifluoro-2-methyl-3,13,19-triazatetracyclo [11.5.2.0^{5,7}.0^{16,20}] icosa-1(19),14,16(20), 17-tetraen-4-one] in this work. An IC50 of 5 nM was found for `[2H]C1([2H])[C@H](N)[C@@H]2CC[C@@H](C2)N1C(=O)c1cc(OC)c2c(c1)nc(-c1cc3ccc4nc3n1CCCCCc1ccccc1C(=O)N[C@@H]4C)n2C` [Example 770, (2~{R})-17-[5-[(1~{S},4~{R}, 5~{R})-4-amino-3,3-dideuterio-2-azabicyclo[3.2.1]octane-2-carbonyl]-7-methoxy-1-methyl-benzimidazol-2-yl]-2-methyl-3,16,22-triazatetracyclo[14.5.2.0^ {5,10).0^{19,23}]tricosa-1(22),5(10),6,8,17,19(23), 20-heptaen-4-one] in this work. An IC50 of 28 nM was found for `COc1cc(C(=O)N2C[C@H](N)[C@@H]3CC[C@H]2C3)cc2nc(-c3cc4ccc5nc4n3CC(F)(F)CCCOC(C)(C)C(=O)N[C@@H]5C)n(C3CC3)c12` [Example 771, (11~{R})-17-[5-[(1~{S),4~{R}, 5~{R})-4-amino-2-azabicyclo [3.2.1]octane-2-carbonyl]-1-cyclopropyl-7-methoxy-benzimidazol-2-yl]-3,3-difluoro-8,8,11-trimethyl-7-oxa-1,10,19-triazatricyclo[10.5.2.0^ {15,18}]nonadeca-12(19),13,15(18),16-tetraen-9-one] in this work. An IC50 of 6 nM was found for `COc1cc(C(=O)N2C[C@H](N)[C@@H]3CC[C@H]2C3)cc2nc(-c3cc4ccc5nc4n3C[C@H]3C[C@H]3CC[C@]3(F)C[C@H]3C(=O)N[C@@H]5C)n(C3CC3)c12` [Example 772, (3~{S},5~{R},8~{S},10~ {S},13~{R})-19-[5-[(1~{S},4~ {R},5~{R})-4-amino-2-azabicyclo[3.2.1]octane-2-carbonyl]-1-cyclopropyl-7-methoxy-benzimidazol-2-yl]-8-fluoro-13-methyl-1,12,21-triazapentacyclo[12.5.2.0^ {3,5).0^{8,10}.0^{17,20}] henicosa-14(21), 15,17(20),18-tetraen-11-one] in this work. An IC50 of 16 nM was found for `C[C@H]1NC(=O)C2(CC2)OCCCC(F)(F)Cn2c(-c3nc4cc(C(=O)N5C[C@H](N)[C@@H]6CC[C@H]5C6)cc(F)c4n3C3CC3)cc3ccc1nc32` [Example 773, (11~{R})-17-[5-[(1~{S},4~{R}, 5~{R})-4-amino-2-azabicyclo [3.2.1]octane-2-carbonyl]-1-cyclopropyl-7-fluoro-benzimidazol-2-yl]-3,3-difluoro-11-methyl-spiro[7-oxa-1,10,19-triazatricyclo[10.5.2.0^ {15,18}]nonadeca-12(19),13,15(18),16-tetraene-8,1′-cyclopropane]-9-one] in this work. An IC50 of 33 nM was found for `C[C@H]1NC(=O)c2ccc(Cl)nc2CCCCCn2c(-c3nc4cc(C(=O)N5CC[C@H]6CC[C@@H]5[C@@H]6N)cc(F)c4n3C3CC3)cc3ccc1nc32` [Example 774, (2~{R})-17-[5-[(1~{R},5~{R}, 8~{R})-8-amino-2-azabicyclo [3.2.1]octane-2-carbonyl]-1-cyclopropyl-7-fluoro-benzimidazol-2-yl]-8-chloro-2-methyl-3,9,16,22-tetrazatetracyclo[14.5.2.0^ {5,10).0^{19,23}]tricosa-1(22),5(10),6,8,17,19(23),20-heptaen-4-one] in this work. An IC50 of 29 nM was found for `C[C@H]1NC(=O)[C@H]2[C@H](CCCCCn3c(-c4nc5cc(C(=O)N6C[C@H](N)[C@@H]7CC[C@H]6C7)cc(F)c5n4C4CC4)cc4ccc1nc43)C2(F)F` [Example 775, (2~{R},5~{R},7~{S})-14-[5-[(1~{S},4~{R},5~{R})-4-amino-2-azabicyclo[3.2.1]octane-2-carbonyl]-1-cyclopropyl-7-fluoro-benzimidazol-2-yl]-6,6-difluoro-2-methyl-3,13,19-triazatetracyclo[11.5.2.0^ {5,7).0^{16,20}]icosa-1(19),14,16(20),17-tetraen-4-one] in this work. An IC50 of 17 nM was found for `C[C@H]1NC(=O)c2ccc(C(F)F)nc2CCCCCn2c(-c3nc4cc(C(=O)N5C[C@H](N)[C@@H]6CC[C@H]5C6)cc(F)c4n3[C@@H]3C[C@H]3F)cc3ccc1nc32` [Example 776, (2~{R})-17-[5-[(1~{S},4~{R}, 5~{R})-4-amino-2-azabicyclo [3.2.1]octane-2-carbonyl]-7-fluoro-1-[(1~{R},2~{R})-2-fluorocyclopropyl]benzimidazol-2-yl]-8-(difluoromethyl)-2-methyl-3,9,16,22-tetrazatetracyclo[14.5.2.0^ {5,10).0^{19,23}]tricosa-1(22),5(10),6,8,17,19(23),20-heptaen-4-one] in this work. An IC50 of 17 nM was found for `COc1cc(C(=O)N2C[C@H](N)[C@@H]3CC[C@H]2C3)cc2nc(-c3cc4ccc5nc4n3CCCCCc3nc(C(F)F)ccc3C(=O)N[C@@H]5C)c(C)n12` [Example 777, (2~{R})-17-[7-[(1~{S},4~{R},5~ {R})-4-amino-2-azabicyclo [3.2.1]octane-2-carbonyl]-5-methoxy-3-methyl-imidazo[1,2-a]pyridin-2-yl]-8-(difluoromethyl)-2-methyl-3,9,16,22-tetrazatetracyclo [14.5.2.0^{5,10).0^{19,23}] tricosa-1(22),5(10),6,8,17, 19(23),20-heptaen-4-one] in this work. An IC50 of 338 nM was found for `COc1cc(C(=O)N2CC[C@@H](OC)[C@@H](N)C2)cc2nc(-c3cc4ccc5nc4n3CCCCCCC(C)(C)C(=O)NC5C3CC3)n(C)c12` (some centres unmarked) [Example 778, 17-[5-[(3~{S),4~{R})-3-amino-4-methoxy-piperidine-1-carbonyl]-7-methoxy-1-methyl-benzimidazol-2-yl]-11-cyclopropyl-8,8-dimethyl-1,10,19-triazatricyclo [10.5.2.0^{15,18}]nonadeca-12,14,16,18-tetraen-9-one] in this work. An IC50 of 339 nM was found for `CCC1NC(=O)C(C)(C)CCCCCCn2c(-c3nc4cc(C(=O)N5CC[C@@H](OC)[C@@H](N)C5)cc(OC)c4n3C)cc3ccc1nc32` (some centres unmarked) [Example 779, 17-[5-[(3~{S),4~{R})-3-amino-4-methoxy-piperidine-1-carbonyl]-7-methoxy-1-methyl-benzimidazol-2-yl]-11-ethyl-8,8-dimethyl-1,10,19-triazatricyclo[10.5.2.0^ {15,18}]nonadeca-12,14,16,18-tetraen-9-one] in this work. An IC50 of 53 nM was found for `COc1cc(C(=O)N2CC[C@@H](OC)[C@@H](N)C2)cc2nc(-c3cc4ccc5nc4n3CCCCCc3ccc(Cl)nc3C(=O)N[C@@H]5C)n(C)c12` [Example 780, (2~{R})-17-[5-[(3~{S},4~{R})-3-amino-4-methoxy-piperidine-1-carbonyl]-7-methoxy-1-methyl-benzimidazol-2-yl]-7-chloro-2-methyl-3,6,16,22-tetrazatetracyclo[14.5.2.0^ {5,10).0^{19,23}]tricosa-1(21),5(10),6,8,17,19,22-heptaen-4-one] in this work. An IC50 of 73 nM was found for `COc1cc(C(=O)N2CC[C@@H](OC)[C@@H](N)C2)cc2nc(-c3cc4ccc5nc4n3CCC/C=C/c3ccc(Cl)nc3C(=O)N[C@@H]5C)n(C)c12` [Example 781, (2~{R},11~{E})-17-[5-[(3~ {S},4~{R})-3-amino-4-methoxy-piperidine-1-carbonyl]-7-methoxy-1-methyl-benzimidazol-2-yl]-7-chloro-2-methyl-3,6,16,22-tetrazatetracyclo[14.5.2.0^ {5,10}.0^{19,23}]tricosa-1(21),5(10),6,8,11,17,19,22-octaen-4-one] in this work. An IC50 of 63 nM was found for `COc1cc(C(=O)N2CC[C@@H](OC)[C@@H](N)C2)cc2nc(-c3cc4ccc5nc4n3CCCCC[C@@H]3C[C@H]3C(=O)NC5(C)C)n(C)c12` [Example 782, (5˜{R},7˜{R})-14-[5-[(3˜{S},4˜{R})-3-amino-4-methoxy-piperidine-1-carbonyl]-7-methoxy-1-methyl-benzimidazol-2-yl]-2,2-dimethyl-3,13,19-triazatetracyclo[11.5.2.0^{5,7}.0^{16,20}]icosa-1(18),14,16,19-tetraen-4-one] in this work.
